≈ marks a conversion by molar mass, not a printed value.
Legend:
[1] = background statement; cited from earlier work
[2] = Solubility of the API in various solvent systems (saturation solubility studies); type: physicochemical
Text: In developing the parenteral formulation of mirabegron, the present inventors conducted extensive research and experiments. The solubility of API was studied in various solvent systems. For formulating immediate release injectable formulations, the solubility of the drug plays an important role as the final parenteral formulation has to be essentially a clear solution. […] Further, the inventors of the present invention were able to achieve maximum API solubility based on series of saturation solubility studies performed. […] The assessment of the successful development and stability of the solutions has been made on basis of the appearance of the solutions, the pH-value, osmolality, impurities content, and stability. The prepared formulations were found acceptable on these parameters.

[3] = test system: biomarkers such as uncoupling protein 1 (UCP1), PGC-1α in iWAT (Inguinal white adipose tissue); assay: Biomarker expression in iWAT after localized microinjections of the injection formulations; type: in vivo, C57BL/6 mice; conditions: dose up to 1 mg per animal; single and multiple localized microinjections in iWAT; indicates marked thermogenesis
Protocol: In certain non-limiting embodiments, the injection formulations were evaluated to determine the effect of mirabegron in animals (such as C57BL/6 mice etc.). The purpose of this study was to determine the effect of mirabegron on modulation in biomarkers such as uncoupling protein 1 (UCP1), Peroxisome proliferator-activated receptor-gamma coactivator-1alpha (PGC-1α) and others in this category to check pharmacokinetics after single and multiple localized microinjections in iWAT (Inguinal white adipose tissue). […]

## Nc1nc(CC(=O)Nc2ccc(CCNC[C@H](O)c3ccccc3)cc2)cs1 [Mirabegron, (R)-2-(2-aminothiazol-4-yl)-4′-{2-[(2-hydroxy-2 phenylethyl)amino]ethyl}acetanilide]
[1]
  Solubility in water: practically insoluble
[2]; Acetate buffer having pH 4.5, saturation solubility studies
  Solubility of API in Acetate buffer: maximum solubility
[2]; co-solvent (such as propylene glycol) with or without heating
  Drug solubility with co-solvent: failed to achieve desired drug solubility
[2]; pH close to 3.0
  Solubility of API when pH is adjusted to the acidic side: soluble
[2]; solution with pH adjusted to the acidic side, pH 3, aqueous buffer, after pH adjusted to the acidic side
  solubility: ≤ 100000 µg/mL
[2]; water
  Solubility of API in water: practically insoluble
[2]; water, starting value, before pH adjustment
  solubility: ~100 µg/mL (≈ 252 µM)
[3]
  Expression of biomarkers in iWAT: statistically significant increase

Source: US11311518B1, “Parenteral dosage form of β3 adrenoreceptor agonists” (Jubilant Pharma Holdings Inc., priority 2021, dated 2022)
